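These data come from cells grown in 96-well plates and exposed to compound for 48 hours at five concentrations. GI50 = concentration required for 50% inhibition of growth.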 Calls of active or inactive are those of the source. No stated cut-off is given here; in the data, active = GI50 up to about 1.1 µM and inactive = higher.
Tests used:
Experiment in all cases: inhibition of tumour cell growth, NCI panel, 48 h
[1] = test system: SK-MEL-5
[2] = test system: UO-31
[3] = test system: CCRF-CEM
[4] = test system: EKVX
[5] = test system: CAKI-1
[6] = test system: M14
[7] = test system: BT-549
[8] = test system: COLO 205
[9] = test system: A549
[10] = test system: SNB-19
[11] = test system: RXF 393
[12] = test system: A498
[13] = test system: NCI/ADR-RES
[14] = test system: SW-620
[15] = test system: UACC-257
[16] = test system: SF-268
[17] = test system: HOP-62
[18] = test system: ACHN
[19] = test system: HCT-116
[20] = test system: SN12C
[21] = test system: MDA-MB-435
[22] = test system: T47D
[23] = test system: MDA-N
[24] = test system: HT-29
[25] = test system: RPMI-8226
[26] = test system: Hs-578T
[27] = test system: HCT-15
[28] = test system: HL-60
[29] = test system: LOX IMVI
[30] = test system: SK-MEL-2
[31] = test system: Malme-3M
[32] = test system: OVCAR-5
[33] = test system: PC-3
[34] = test system: SR
[35] = test system: TK-10
[36] = test system: SK-MEL-28
[37] = test system: MOLT-4
[38] = test system: NCI-H226
[39] = test system: OVCAR-3
[40] = test system: KM12
[41] = test system: NCI-H460
[42] = test system: K562
[43] = test system: DU-145
[44] = test system: UACC-62
[45] = test system: NCI-H522
[46] = test system: U-251
[47] = test system: HOP-92
[48] = test system: OVCAR-8
[49] = test system: MCF7
[50] = test system: OVCAR-4
[51] = test system: SK-OV-3
[52] = test system: SF-539
[53] = test system: 786-0
[54] = test system: HCC 2998
[55] = test system: MDA-MB-231
[56] = test system: NCI-H23
[57] = test system: IGROV-1
[58] = test system: SF-295
[59] = test system: SNB-75

COC(=O)C1=NN2c3ccccc3CN([C@@H](C)c3ccccc3)C(=O)[C@@H]2C1
GI50 [1]: 18.7 µM (inactive)
GI50 [2]: 17.5 µM (inactive)
GI50 [3]: 25.7 µM (inactive)
GI50 [4]: 24.6 µM (inactive)
GI50 [5]: 23.2 µM (inactive)
GI50 [6]: 16.5 µM (inactive)
GI50 [7]: 24.6 µM (inactive)
GI50 [8]: 35.6 µM (inactive)
GI50 [9]: 31.4 µM (inactive)
GI50 [10]: 39.6 µM (inactive)
GI50 [11]: 46.6 µM (inactive)
GI50 [12]: 91.8 µM (inactive)
GI50 [13]: 21 µM (inactive)
GI50 [14]: 87.3 µM (inactive)
GI50 [15]: 30.5 µM (inactive)
GI50 [16]: 28.7 µM (inactive)
GI50 [17]: 57.7 µM (inactive)
GI50 [18]: 34 µM (inactive)
GI50 [19]: 32.4 µM (inactive)
GI50 [20]: 56.1 µM (inactive)
GI50 [21]: 16.6 µM (inactive)
GI50 [22]: 14.1 µM (inactive)
GI50 [23]: 28.3 µM (inactive)
GI50 [24]: 44.1 µM (inactive)
GI50 [25]: 24.5 µM (inactive)
GI50 [26]: 41.1 µM (inactive)
GI50 [27]: 31.7 µM
GI50 [28]: 23.9 µM (inactive)
GI50 [29]: 25.5 µM (inactive)
GI50 [30]: 28.7 µM (inactive)
GI50 [31]: 23.1 µM (inactive)
GI50 [32]: 52.1 µM (inactive)
GI50 [33]: 31.4 µM (inactive)
GI50 [34]: 22 µM (inactive)
GI50 [35]: 50.7 µM (inactive)
GI50 [36]: 38.7 µM (inactive)
GI50 [37]: 15 µM (inactive)
GI50 [38]: 54.1 µM (inactive)
GI50 [39]: 30.8 µM (inactive)
GI50 [40]: 21.2 µM (inactive)
GI50 [41]: 58.3 µM (inactive)
GI50 [42]: 21.8 µM (inactive)
GI50 [43]: 30.8 µM (inactive)
GI50 [44]: 19 µM (inactive)
GI50 [45]: 21.7 µM (inactive)
GI50 [46]: 40.7 µM (inactive)
GI50 [47]: 34.4 µM (inactive)
GI50 [48]: 34.6 µM (inactive)
GI50 [49]: 34.8 µM (inactive)
GI50 [50]: 13.3 µM (inactive)
GI50 [51]: > 100 µM (inactive)
GI50 [52]: 50.7 µM (inactive)
GI50 [53]: 41.2 µM (inactive)
GI50 [54]: 48.2 µM (inactive)
GI50 [55]: 57 µM (inactive)
GI50 [56]: 32.9 µM (inactive)
GI50 [57]: 64.1 µM (inactive)
GI50 [58]: 40.2 µM (inactive)

CCOC(=O)/C=C/[C@H](O)[C@@H](O)/C=C/C(=O)OCC
GI50 [1]: 22.6 µM (inactive)
GI50 [2]: 61.8 µM (inactive)
GI50 [3]: 8.34 µM (inactive)
GI50 [4]: 24.7 µM (inactive)
GI50 [5]: 23.1 µM (inactive)
GI50 [7]: 35.3 µM (inactive)
GI50 [8]: 32.4 µM (inactive)
GI50 [9]: 40.7 µM (inactive)
GI50 [10]: 22 µM (inactive)
GI50 [11]: 20.2 µM (inactive)
GI50 [12]: 42.7 µM (inactive)
GI50 [13]: 29.9 µM (inactive)
GI50 [14]: 17 µM (inactive)
GI50 [15]: 45.8 µM (inactive)
GI50 [16]: 34.2 µM (inactive)
GI50 [17]: 21.3 µM (inactive)
GI50 [18]: 23.8 µM (inactive)
GI50 [19]: 18.2 µM (inactive)
GI50 [20]: 26.6 µM (inactive)
GI50 [21]: 29.9 µM (inactive)
GI50 [22]: 34.1 µM (inactive)
GI50 [23]: 29.6 µM (inactive)
GI50 [24]: 15.4 µM (inactive)
GI50 [25]: 21.2 µM (inactive)
GI50 [26]: 34.8 µM (inactive)
GI50 [27]: 23 µM
GI50 [29]: 23.9 µM (inactive)
GI50 [30]: 30.8 µM (inactive)
GI50 [31]: 21.6 µM (inactive)
GI50 [32]: 51.2 µM (inactive)
GI50 [33]: 23.3 µM (inactive)
GI50 [34]: 8.04 µM (inactive)
GI50 [35]: 55.8 µM (inactive)
GI50 [36]: 18.2 µM (inactive)
GI50 [37]: 14.9 µM (inactive)
GI50 [38]: > 100 µM (inactive)
GI50 [39]: 20.1 µM (inactive)
GI50 [40]: 18.9 µM (inactive)
GI50 [41]: 19.1 µM (inactive)
GI50 [42]: 10.6 µM (inactive)
GI50 [43]: 37.4 µM (inactive)
GI50 [44]: 21.3 µM (inactive)
GI50 [45]: 20.7 µM (inactive)
GI50 [46]: 31 µM (inactive)
GI50 [47]: 16.8 µM (inactive)
GI50 [48]: 19.6 µM (inactive)
GI50 [49]: 19.6 µM (inactive)
GI50 [50]: 31.8 µM (inactive)
GI50 [51]: 62.2 µM (inactive)
GI50 [52]: 33.5 µM (inactive)
GI50 [53]: 33.8 µM (inactive)
GI50 [54]: 36.1 µM (inactive)
GI50 [55]: 41.3 µM (inactive)
GI50 [56]: 33.8 µM (inactive)
GI50 [57]: 30.7 µM (inactive)
GI50 [59]: 62.7 µM (inactive)
GI50 [58]: 31.7 µM (inactive)

Reference: ChEMBL document CHEMBL1201862, “PubChem BioAssay data set” (2004)
